Target: T1, papain (Carica papaya, UniProt P00784)
T1 construct: purchased Sigma Chem. Co
T1 sequence (P00784 134-345): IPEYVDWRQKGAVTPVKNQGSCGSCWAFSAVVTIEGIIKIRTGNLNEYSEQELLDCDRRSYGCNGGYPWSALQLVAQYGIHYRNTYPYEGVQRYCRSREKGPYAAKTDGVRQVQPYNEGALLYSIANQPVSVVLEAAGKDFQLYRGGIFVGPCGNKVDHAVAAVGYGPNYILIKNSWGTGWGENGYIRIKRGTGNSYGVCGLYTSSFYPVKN
Assay: Papain inhibitory activity (milk casein digestion)
Assay type: biochemical
Settings: papain 80 μg/ml 0.5 ml, cysteine, pH 6.8, 1% milk casein, 40° C., 10 minutes
Method: Papain inhibitory activity of the compounds of this invention was assayed as follows: To 0.5 ml of a solution of papain (80 μg/ml, Sigma Chem. Co., 2x cry.), were added 0.25 ml of 40 mM cysteine dissolved in 20 mM disodium ethylenediamine tetraacetic acid solution adjusted pH to 6.8 with sodium hydroxide and 0.25 ml of 33 mM phosphate buffer (pH 6.8) with or without inhibitor. After incubation at 40° C. for 15 minutes, the resulting mixture was added to 5 ml of 1% milk casein solution in the same buffer as described above, and further incubated at 40° C. for 10 minutes. Then the mixture was mixed with 5 ml of 0.44 M trichloroacetic acid solution and followed by filtration with a sheet of Toyo filter paper No. 4. The extinction of the filtrate was read at 280 nm. The percent inhibition was calculated from the formula, 100 x (B-A)/B; wherein B stands for the absorbance without inhibitor and A for the absorbance with inhibitor. The compound Nos. in Table 1 are as defined in Examples as described hereinafter.

SMILES | ID50 (amount of inhibitor for 50% inhibition)
O=C(OCCC1CCCCC1)[C@@H]1O[C@H]1C(=O)OCCC1CCCCC1 (relative stereo) [EP-61, di-2-cyclohexaneethyl epoxysuccinate] | 1.18 γ
O=C(O)[C@@H]1O[C@H]1C(=O)OCCC1CCCCC1 (relative stereo) [EP-62, 2-cyclohexaneethyl potassium epoxysuccinate] | 0.08 γ
O=C(OCCCC1CCCC1)[C@@H]1O[C@H]1C(=O)OCCCC1CCCC1 (relative stereo) [EP-63, di-3-cyclopentanepropyl epoxysuccinate] | 54.82 γ
O=C(O)[C@@H]1O[C@H]1C(=O)OCCCC1CCCC1 (relative stereo) [EP-64, 3-cyclopentanepropyl potassium epoxysuccinate] | 0.10 γ
O=C(OCCCC1CCCCC1)[C@@H]1O[C@H]1C(=O)OCCCC1CCCCC1 (relative stereo) [EP-65, di-3-cyclohexanepropyl epoxysuccinate] | 69.44 γ
O=C(O)[C@@H]1O[C@H]1C(=O)OCCCC1CCCCC1 (relative stereo) [EP-66, 3-cyclohexanepropyl potassium epoxysuccinate] | 0.08 γ
O=C(OCCCCC1CCCCC1)[C@@H]1O[C@H]1C(=O)OCCCCC1CCCCC1 (relative stereo) [EP-67, di-4-cyclohexanebutyl epoxysuccinate] | 93.28 γ
O=C(O)[C@@H]1O[C@H]1C(=O)OCCCCC1CCCCC1 (relative stereo) [EP-68, 4-cyclohexanebutyl potassium epoxysuccinate] | 0.10 γ
O=C(OCC1CCC=CCCC1)[C@@H]1O[C@H]1C(=O)OCC1CCC=CCCC1 (relative stereo) [EP-73, di-4-cyclooctenemethyl epoxysuccinate] | 0.10 γ
O=C(O)[C@@H]1O[C@H]1C(=O)OCC1CCC=CCCC1 (relative stereo) [EP-74, 4-cyclooctenemethyl potassium epoxysuccinate] | 0.07 γ
O=C(O)[C@@H]1O[C@H]1C(=O)OCC1CCCO1 (relative stereo) [EP-76, tetrahydro-2-furanmethyl potassium epoxysuccinate] | 0.82 γ
O=C(OCc1ccco1)[C@@H]1O[C@H]1C(=O)OCc1ccco1 (relative stereo) [EP-77, di-2-furanmethyl epoxysuccinate] | 0.77 γ
O=C(O)[C@@H]1O[C@H]1C(=O)OCc1ccco1 (relative stereo) [EP-78, 2-furanmethyl potassium epoxysuccinate] | 0.54 γ
O=C(O)[C@@H]1O[C@H]1C(=O)OCc1cccs1 (relative stereo) [EP-80, 2'-thenyl potassium epoxysuccinate] | 0.32 γ
O=C(O)[C@@H]1O[C@H]1C(=O)OCc1cccc2ccccc12 (relative stereo) [EP-82, 1'-naphthylmethyl potassium epoxysuccinate] | 0.34 γ
O=C(OCc1c(Cl)ccc2ccccc12)[C@@H]1O[C@H]1C(=O)OCc1c(Cl)ccc2ccccc12 (relative stereo) [EP-83, di-2'-chloro-1'-naphthylmethyl epoxysuccinate] | 1.55 γ
O=C(O)[C@@H]1O[C@H]1C(=O)OCc1c(Cl)ccc2ccccc12 (relative stereo) [EP-84, 2'-chloro-1'-naphthylmethyl potassium epoxysuccinate] | 0.29 γ
O=C(OCc1cccc2c(Br)cccc12)[C@@H]1O[C@H]1C(=O)OCc1cccc2c(Br)cccc12 (relative stereo) [EP-85, di-5'-bromo-1'-naphthylmethyl epoxysuccinate] | 1.56 γ
O=C(O)[C@@H]1O[C@H]1C(=O)OCc1cccc2c(Br)cccc12 (relative stereo) [EP-86, 5'-bromo-1'-naphthylmethyl potassium epoxysuccinate] | 0.27 γ
